Experimental data: US11318157B2, “6-6 bicyclic aromatic ring substituted nucleoside analogues for use as PRMT5 inhibitors” (Janssen Pharmaceutica NV, priority 2015, dated 2022)
Like-named read-outs stand apart in the source and are kept apart here.

How the values were obtained:
PRMT5-MEP50 enzyme [1] = biological target: T1, PRMT5-MEP50 enzyme (Homo sapiens, UniProt O14744); experiment: In vitro assay 1a: high throughput mass spectrometer assay of SAH formation, 10 nM enzyme, 60 min; format: biochemical; settings: averaged values, PRMT5-MEP50, 10 nM enzyme, read-out: pIC50 Assay 1a (converted)
T1 construct: One virus expresses full length human PRMT5 with Flag-tag at N-terminus; Flag (N); purchased Charles River (Argenta); host or cells: insect cells (Sf9), baculovirus co-infection
Procedure, shortened: (§1)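 SAH product measured by RapidFire mass spectrometry after formic acid stop; IC50 from 11-point 1:2 dilutions, four-parameter fit. Reactions at 30 °C in 20 mM Tris pH 8.5 with 1 μM SAM, 0.3 μM H2A: assay 1a 10 nM PRMT5-MEP50, 60 min; assay 1b 1.25 nM, 120 min.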

[2] = test system: nuclear symmetric Arginine dimethylation in A549 cells; experiment: PD assay (assay 2): inhibition of nuclear symmetric Arginine dimethylation (SYM10 immunohistochemistry), 48 h; format: cell-based; settings: for IC50: Homo sapiens
Procedure, shortened: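 Cells seeded at 400/well overnight, then treated 48 h at 37 °C, final DMSO 0.2%. Fixed and stained with SYM10 antibody plus Alexa 488 secondary, Hoechst and CellMask, then imaged on Opera. Normalized to DMSO (high) and 10 μM reference compound (low); averaged pIC50 reported.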

PRMT5-MEP50 enzyme [3] = biological target: T1, PRMT5-MEP50 enzyme; experiment: In vitro assay 1b: high throughput mass spectrometer assay of SAH formation, 1.25 nM enzyme, 120 min; format: biochemical; settings: averaged values, PRMT5-MEP50, 1.25 nM enzyme, 120 min; for IC50: read-out: pIC50 Assay 1b (converted)
Procedure, shortened: as §1

[4] = A549, averaged values, PD assay, A549 cells, symmetric Arginine dimethylation, read-out: pIC50 Assay 2 (converted)

T1 sequence (O14744 whole entry): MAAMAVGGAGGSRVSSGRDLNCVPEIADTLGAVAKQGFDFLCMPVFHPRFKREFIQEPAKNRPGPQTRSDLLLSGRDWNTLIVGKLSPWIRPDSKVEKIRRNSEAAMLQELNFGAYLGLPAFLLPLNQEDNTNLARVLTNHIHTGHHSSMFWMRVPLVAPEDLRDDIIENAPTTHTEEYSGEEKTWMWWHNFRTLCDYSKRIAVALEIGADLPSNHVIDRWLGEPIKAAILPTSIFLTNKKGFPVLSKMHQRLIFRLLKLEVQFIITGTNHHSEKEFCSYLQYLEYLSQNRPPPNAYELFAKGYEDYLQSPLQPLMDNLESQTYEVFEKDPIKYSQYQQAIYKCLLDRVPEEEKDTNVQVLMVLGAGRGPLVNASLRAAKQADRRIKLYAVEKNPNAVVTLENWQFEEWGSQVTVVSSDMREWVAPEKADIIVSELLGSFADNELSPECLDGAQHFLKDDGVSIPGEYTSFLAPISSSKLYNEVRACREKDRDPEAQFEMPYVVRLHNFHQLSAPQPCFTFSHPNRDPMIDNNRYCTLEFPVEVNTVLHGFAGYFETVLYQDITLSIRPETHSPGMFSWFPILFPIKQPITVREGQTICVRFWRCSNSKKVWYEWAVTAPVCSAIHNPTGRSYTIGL
T1 sequence (Q9BQA1 whole entry partner): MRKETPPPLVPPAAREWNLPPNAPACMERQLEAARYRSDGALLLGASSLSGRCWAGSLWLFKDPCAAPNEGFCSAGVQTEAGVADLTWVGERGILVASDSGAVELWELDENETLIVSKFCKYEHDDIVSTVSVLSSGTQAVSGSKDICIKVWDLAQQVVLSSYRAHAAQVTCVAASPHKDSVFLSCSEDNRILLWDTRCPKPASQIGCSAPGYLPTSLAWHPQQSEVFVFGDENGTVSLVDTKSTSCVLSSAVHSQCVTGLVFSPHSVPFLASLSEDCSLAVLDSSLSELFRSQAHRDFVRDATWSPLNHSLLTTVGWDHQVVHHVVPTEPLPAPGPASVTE

| Structure (SMILES) | IC50 (PRMT5-MEP50 enzyme [1]) | IC50 [2, 4] | IC50 (PRMT5-MEP50 enzyme [3]) | pIC50 Assay 2 ([2]; averaged values, PD assay, A549 cells, symmetric Arginine dimethylation) | pIC50 Assay 1b (PRMT5-MEP50 enzyme [3]) | IC50 ([2]; A549, read-out: pIC50 Assay 2 (converted)) |
| --- | --- | --- | --- | --- | --- | --- |
| Cc1cc2c(N)ncnc2n1[C@@H]1O[C@H](COc2ccc3cccnc3c2)[C@@H](O)[C@H]1O [Compound 83] | 39.8 nM | 200 nM | 126 nM |  |  |  |
| Nc1ncnc2c1ccn2[C@@H]1O[C@H](COc2cc3ncccc3cc2Cl)[C@@H](O)[C@H]1O [Compound 91] | 126 nM | 398 nM | 501 nM |  |  |  |
| CC(C)C(=O)O[C@@H]1[C@H](OC(=O)C(C)C)[C@@H](COc2ccc3cccnc3c2)O[C@H]1n1ccc2c(N)ncnc21 [Compound 89] | > 10000 nM | 63.1 nM | 31600 nM |  |  |  |
| Nc1ccc2ccc(OC[C@H]3O[C@@H](n4ccc5c(Cl)ncnc54)[C@H](O)[C@@H]3O)cc2n1 [Compound 130] | 0.631 nM | 12.6 nM | 7.94 nM |  |  |  |
| Nc1ncnc2c1ccn2[C@@H]1O[C@H](COc2ccc3ccc(NCc4ccccc4)nc3c2)[C@@H](O)[C@H]1O [Compound 107] | 1.26 nM | 3.98 nM | 3.98 nM |  |  |  |
| Nc1ncnc2c1ccn2[C@@H]1O[C@H](COc2ccc3ccc(NCC4CC4)nc3c2)[C@@H](O)[C@H]1O [Compound 142] | 1.26 nM | 15.8 nM | 7.94 nM |  |  |  |
| O[C@@H]1[C@@H](CCc2ccc3ccc(NCC4CC4)nc3c2)C[C@@H](n2ccc3c(Cl)ncnc32)[C@@H]1O [Compound 115] | 10 nM | ~5.5 nM | 5.01 nM |  |  |  |
| Nc1ncnc2c1ccn2[C@@H]1O[C@H](COc2ccc3cc(C(F)(F)F)cnc3c2)[C@@H](O)[C@H]1O [Compound 27] | 398 nM | ~1150 nM | 794 nM |  |  |  |
| O[C@@H]1[C@H](O)[C@@H](CCc2ccc3ccc(NCc4ccc(Cl)cc4)nc3c2)O[C@H]1n1ccc2cncnc21 [Compound 165] | 3.98 nM | 20 nM | 31.6 nM |  |  |  |
| Cc1cnc2cc(CC[C@H]3C[C@@H](n4ccc5c(N)ncnc54)[C@H](O)[C@@H]3O)ccc2c1 [Compound 113] | 5.01 nM | 5.01 nM | 10 nM |  |  |  |
| COc1ncnc2c1ccn2[C@@H]1O[C@H](CCc2ccc3ccc(NCC4CC4)nc3c2)[C@@H](O)[C@H]1O [Compound 191] | 200 nM | 1260 nM | 631 nM |  |  |  |
| Nc1ncnc2c1ccn2[C@@H]1C[C@H](CCc2ccc3cnc(NC4CC4)nc3c2)[C@@H](O)[C@H]1O [Compound 145] | 15.8 nM | 79.4 nM | 79.4 nM |  |  |  |
| Nc1ncnc2c1ccn2[C@@H]1C[C@H](CNc2ccc3cc(Br)cnc3c2)[C@@H](O)[C@H]1O [Compound 54a] | 7.94 nM |  |  | 7.4 | 7.8 |  |
| Nc1ncnc2c1ccn2[C@@H]1C[C@H](Cc2ccc3ccccc3c2)[C@@H](O)[C@H]1O [Compound 90] | 100 nM | > 10000 nM | 631 nM |  |  |  |
| Cc1cnc2cc(CC[C@H]3O[C@@H](n4ccc5c(N)ncnc54)[C@H](O)[C@@H]3O)ccc2c1 [Compound 123] | 5.01 nM | 31.6 nM | 39.8 nM |  |  |  |
| Nc1nc(Cl)nc2c1ccn2[C@@H]1O[C@H](COc2ccc3cc(Br)cnc3c2)[C@@H](O)[C@H]1O [Compound 42] | 50.1 nM | 316 nM | 126 nM |  |  |  |
| Nc1ncnc2c1ccn2[C@@H]1C[C@H](Cc2ccc3cccnc3c2)[C@@H](O)[C@H]1O [Compound 66] | 2000 nM | > 20000 nM | 5010 nM |  |  |  |
| N#Cc1cnc2cc(OC[C@H]3O[C@@H](n4ccc5c(N)ncnc54)[C@H](O)[C@@H]3O)ccc2c1 [Compound 98] | 631 nM | 10000 nM | 1580 nM |  |  |  |
| CNc1ccc2ccc(CC[C@H]3C[C@@H](n4ccc5c(N)ncnc54)[C@H](O)[C@@H]3O)cc2n1 [Compound 126] | 0.501 nM |  | 2.51 nM |  |  | 0.316 nM |
| CC(C)C(=O)O[C@@H]1[C@H](OC(=O)C(C)C)[C@@H](COc2ccc3cc(Br)cnc3c2)O[C@H]1n1ccc2c(N)ncnc21 [Compound 73] | > 10000 nM | 100 nM | > 100000 nM |  |  |  |
